Results on one compound are retold here after patent US10383875B2, “Pharmaceutical formulations of xanthine or xanthine derivatives, and their use” (Imprimis Pharmaceuticals, Inc., priority 2013, dated 2019).

Each structure is given as a SMILES string.

The test system of one data set is erectile dysfunction. Nature of the data set: Intracavernosal injection in a patient with erectile dysfunction (Example 4). Type of data set: in vivo, human. To be noted: person, along with phentolamine, alprostadil and papaverine. How it is done: A new injection was reformulated to contain the 3 vasoactive drugs mentioned above along with the addition of pentoxifylline, and was administered to the patient.

Data set [1] relates to symptoms of PD, such as erectile dysfunction. Description: Intracavernosal injection of a composition comprising pentoxifylline (general finding). It counts as in vivo. From the text:
This disclosure relates to the finding that local administration of a xanthine derivative, e.g., pentoxifylline, has produced unexpected improvement in treating a fibrotic disease.

The subject of another data set is Peyronie's plaque. Nature of the data set: Injection of pentoxifylline directly into the Peyronie's plaque of patients (Examples 5 and 6). Type of data set: in vivo, human. Conditions: Peyronie's disease.
For data set [2], the system named is Peyronie's Disease plaques. Conditions: oral administration; cited from earlier work.

Procedure for Peyronie's plaque: In Examples 5 and 6, patients suffering from Peyronie's disease were treated. A therapy cycle included injections of sterile pentoxifylline. More specifically, 6 separate injections were to be conducted over every two weeks. The dosage was 5 mg of pentoxifylline in a 1 ml volume. Single use vials were dispensed. The injections were made using a 21 gauge cannula directly into the Peyronie's plaque. A nerve block was done around the injection site to lessen the pain. Manual manipulation and traction techniques were employed to massage the area of the injection. Patients returned after two weeks for another injection and manual manipulation session.
Baseline measurements were collected before any treatment occurred to characterize the extent of the patient's disease. The degree of curvature was noted, as well as any pain/discomfort that the patient presently had and current sexual ability. Psychosocial effects related to the patient's disease were observed as well.
In Example 5, the patient suffering from Peyronie's disease was brought to the procedure room, prepared and draped in the usual sterile fashion.
A total of 1 mL of 1% lidocaine was used to perform a local block. Once the patient was anesthetized, the plaque was isolated between two fingers and 1 mL of 5 mg pentoxyfilline was injected into the plaque in a fan-like fashion. […]

On to `CC(=O)CCCCn1c(=O)c2c(ncn2C)n(C)c1=O` [pentoxifylline, 1-(5-oxohexyl)-3,7-dimethylxanthine], for which the results for the “improvement of erectile dysfunction” value in the data set on erectile dysfunction (pentoxifylline 6 mg dose) and in the data set with erectile dysfunction (pentoxifylline dose of 4 mg per injection) were “more remarkable” and “remarkable improvement”, respectively. In addition, the “improvement to symptoms of PD, such as erectile dysfunction” value in data set [1] is listed as “remarkable improvement”. The side effects result in data set [1] is “fewer side effects”. Further, the “tolerability of the procedure” value with Peyronie's plaque (Example 5 patient, 1 mL of 5 mg injected into the plaque after 1% lidocaine local block) is listed as “tolerated the procedure well”; in the data set on Peyronie's plaque (Example 6 patient, treated in the same fashion as Example 5 (5 mg in 1 ml into the plaque)) it was “tolerated the procedure well”. For the same compound, in data set [2], the “improvement of Peyronie's disease” value is reported as “moderate to minimal improvement”.
